Laboratory results published in patent publication US10035778B2, “Meta-azacyclic amino benzoic acid derivatives as pan integrin antagonists” (Saint Louis University, priority 2015, dated 2018).

How the values were obtained:
Assay type in all cases: binding
[1] = target: Recombinant human integrin αvβ1 (Homo sapiens (Human), UniProt P05556+P06756); test: Solid Phase Receptor Assay (SPRA) for αvβ1 function; settings: fibronectin-coated plate
Experimental: 2. Solid Phase Receptor Assay (SPRA) for αvβ1 Function
Purified human fibronectin (R&D Systems, 1918-FN) diluted to 5 μg/mL in TBS+ buffer (25 mM Tris pH 7.4, 137 mM NaCl, 2.7 mM KCl, 1 mM CaCl2, 1 mM MgCl2, 1 mM MnCl2) was added to wells (50 μL/well) of a 96-well half-well transparent microtiter plate (Greiner 675061) and incubated overnight at 4° C. Wells were washed 3 times with 150 μL TBS+ and 150 μL of blocking buffer (TBS+ with 1% bovine serum albumin, Sigma A7906) were added. The plate was incubated for 1 hr at 37° C. and then washed 3× with TBS+ buffer. Recombinant human integrin αvβ1 (R&D Systems. 6579-AV) was diluted to 2.0 μg/mL in TBS+/0.1% bovine serum albumin. Compounds were diluted 1:100 into the integrin solution and 50 μL added to empty wells of the washed fibronectin-coated plate according to a standard template with each sample repeated in triplicate. After incubation for two hours at room temperature, the plate was washed 3× with 150 μL of TBS+ buffer. To each well, 50 μL of biotinylated anti-αv antibody (R&D Systems, BAF1219) at 1 μg/mL in TBS+/0.1% BSA were added and the plate covered and incubated for 1 hr at room temperature. After washing the plate 3× with 150 μL of TBS+ buffer, 50 μL of streptavidin-conjugated horseradish peroxidase (R&D Systems, DY998) diluted in TBS+ blocking buffer were added to the wells and the plate incubated for 20 min at room temperature. The plate was washed 3× with TBS+ buffer followed by 50 μL of TMB substrate (Sigma, T4444) added to each well and the plate incubated for 20 min at room temperature. Plates were read by colorimetric detection at 650 nm wavelength using a Tecan Safire II plate reader. Concentration-response curves were constructed by non-linear regression (best fit) analysis, and IC50 values were calculated for each compound.

[2] = target: Recombinant human integrin αvβ6 (Homo sapiens (Human), UniProt P06756+P18564); test: Solid Phase Receptor Assay (SPRA) for αvβ6 function; settings: LAP-coated plate
Recombinant human integrin αvβ6, sequence (P06756 31-992): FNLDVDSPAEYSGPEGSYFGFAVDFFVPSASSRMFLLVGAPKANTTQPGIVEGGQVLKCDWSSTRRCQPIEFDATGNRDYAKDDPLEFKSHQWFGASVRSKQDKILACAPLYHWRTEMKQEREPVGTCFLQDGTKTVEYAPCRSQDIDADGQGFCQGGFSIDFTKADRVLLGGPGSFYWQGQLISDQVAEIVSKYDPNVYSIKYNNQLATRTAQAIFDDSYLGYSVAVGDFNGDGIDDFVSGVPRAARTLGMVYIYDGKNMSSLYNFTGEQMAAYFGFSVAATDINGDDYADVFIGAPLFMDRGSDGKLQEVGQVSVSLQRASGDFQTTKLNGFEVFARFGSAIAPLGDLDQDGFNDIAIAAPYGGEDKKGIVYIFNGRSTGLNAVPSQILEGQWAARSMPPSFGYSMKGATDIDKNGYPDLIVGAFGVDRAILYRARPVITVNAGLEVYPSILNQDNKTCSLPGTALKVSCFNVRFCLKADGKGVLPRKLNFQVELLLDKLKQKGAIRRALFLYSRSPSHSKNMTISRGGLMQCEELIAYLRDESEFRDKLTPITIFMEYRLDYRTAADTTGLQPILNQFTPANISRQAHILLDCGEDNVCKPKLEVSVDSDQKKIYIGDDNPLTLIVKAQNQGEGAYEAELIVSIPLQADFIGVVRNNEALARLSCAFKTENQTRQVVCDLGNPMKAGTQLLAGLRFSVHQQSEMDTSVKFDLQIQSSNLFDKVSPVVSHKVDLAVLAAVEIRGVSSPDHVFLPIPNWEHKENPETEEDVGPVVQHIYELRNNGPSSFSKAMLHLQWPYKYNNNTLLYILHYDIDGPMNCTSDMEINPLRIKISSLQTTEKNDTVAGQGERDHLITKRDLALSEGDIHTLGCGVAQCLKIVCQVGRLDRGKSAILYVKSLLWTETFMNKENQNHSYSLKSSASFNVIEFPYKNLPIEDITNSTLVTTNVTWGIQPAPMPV
Recombinant human integrin αvβ6, sequence (P18564 22-707): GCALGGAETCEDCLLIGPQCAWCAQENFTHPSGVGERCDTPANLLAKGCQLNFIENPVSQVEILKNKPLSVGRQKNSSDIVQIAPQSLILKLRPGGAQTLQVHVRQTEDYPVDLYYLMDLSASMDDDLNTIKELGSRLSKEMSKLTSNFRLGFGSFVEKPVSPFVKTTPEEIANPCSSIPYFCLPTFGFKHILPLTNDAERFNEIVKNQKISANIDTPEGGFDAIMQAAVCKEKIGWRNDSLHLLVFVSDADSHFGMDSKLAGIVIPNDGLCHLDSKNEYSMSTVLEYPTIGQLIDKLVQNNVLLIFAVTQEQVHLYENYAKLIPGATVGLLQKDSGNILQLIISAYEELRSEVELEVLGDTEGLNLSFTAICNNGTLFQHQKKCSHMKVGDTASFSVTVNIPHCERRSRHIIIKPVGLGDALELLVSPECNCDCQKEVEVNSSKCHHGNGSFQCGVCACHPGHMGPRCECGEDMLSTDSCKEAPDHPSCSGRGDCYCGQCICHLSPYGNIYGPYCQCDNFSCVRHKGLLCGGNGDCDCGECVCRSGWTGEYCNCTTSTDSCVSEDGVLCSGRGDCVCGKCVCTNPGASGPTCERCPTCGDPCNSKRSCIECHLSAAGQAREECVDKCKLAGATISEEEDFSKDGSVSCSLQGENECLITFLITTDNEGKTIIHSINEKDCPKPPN
Experimental: 5. Solid Phase Receptor Assay (SPRA) for αvβ6 Function
Recombinant human LAP (R&D Systems, 246-LP) diluted to 0.25 μg/mL in TBS+ buffer (25 mM Tris pH 7.4, 137 mM NaCl, 2.7 mM KCl, 1 mM CaCl2, 1 mM MgCl2, 1 mM MnCl2) was added to wells (50 μL/well) of a 96-well half-well transparent microtiter plate (Greiner 675061) and incubated overnight at 4° C. Wells were washed 3 times with 150 μL TBS+, and 150 μL of blocking buffer (TBS+ with 1% bovine serum albumin, Sigma A7906) were added. The plate was incubated for 1 hr at 37° C., and then washed 3× with TBS+ buffer. Recombinant human integrin αvβ6 (R&D Systems, 3817-AV) was diluted to 0.1 μg/mL in TBS+/0.1% bovine serum albumin. Compounds were diluted 1:100 into the integrin solution and then 50 μL added to empty wells of the washed LAP-coated plate according to a standard template with each sample repeated in triplicate. After incubation for two hours at room temperature, the plate was washed 3× with 150 μL of TBS+ buffer. To each well, 50 μL of biotinylated anti-αv antibody (R&D Systems, BAF1219) at 0.5 μg/mL in TBS+/0.1% BSA were added and the plate was covered and incubated for 1 hr at room temperature. After washing the plate 3× with 150 μL of TBS+ buffer, 50 μL of streptavidin-conjugated horseradish peroxidase (R&D Systems, DY998) diluted in TBS+ blocking buffer were added to the wells and the plate incubated for 20 min at room temperature. The plate was washed 3× with TBS+ buffer followed by 50 μL of TMB substrate (Sigma T4444) added to each well and the plate incubated for 20 min at room temperature. Plates were read by colorimetric detection at 650 nm wavelength using a Tecan Safire II plate reader. Concentration-response curves were constructed by non-linear regression (best fit) analysis, and IC50 values were calculated for each compound.

[3] = target: Recombinant human integrin αvβ8 (Homo sapiens (Human), UniProt P06756+P26012); test: Solid Phase Receptor Assay (SPRA) for αvβ8 function; settings: LAP-coated plate
Recombinant human integrin αvβ8, sequence (P06756 31-992): as the sequence (P06756 31-992) above
Recombinant human integrin αvβ8, sequence (P26012 43-684): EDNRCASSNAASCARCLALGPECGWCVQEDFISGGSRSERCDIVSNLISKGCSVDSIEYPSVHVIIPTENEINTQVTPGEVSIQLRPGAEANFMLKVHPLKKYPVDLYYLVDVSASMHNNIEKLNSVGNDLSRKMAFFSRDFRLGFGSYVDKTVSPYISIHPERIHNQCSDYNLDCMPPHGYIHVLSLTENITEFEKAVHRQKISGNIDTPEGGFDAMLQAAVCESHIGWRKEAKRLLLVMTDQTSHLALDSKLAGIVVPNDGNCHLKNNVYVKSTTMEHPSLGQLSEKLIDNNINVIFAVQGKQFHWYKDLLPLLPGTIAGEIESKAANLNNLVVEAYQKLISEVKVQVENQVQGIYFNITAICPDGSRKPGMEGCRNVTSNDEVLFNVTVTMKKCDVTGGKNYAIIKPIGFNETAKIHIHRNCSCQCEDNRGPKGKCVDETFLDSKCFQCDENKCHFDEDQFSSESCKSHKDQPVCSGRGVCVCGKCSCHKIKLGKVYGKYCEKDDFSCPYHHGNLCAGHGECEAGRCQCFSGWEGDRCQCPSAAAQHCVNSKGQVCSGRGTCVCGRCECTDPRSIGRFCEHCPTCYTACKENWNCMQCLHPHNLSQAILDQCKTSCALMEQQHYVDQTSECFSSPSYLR
Experimental: 6. Solid Phase Receptor Assay (SPRA) for αvβ8 Function
Recombinant human LAP protein (R&D Systems, Inc, 246-LP) diluted to 0.5 μg/mL in TBS+ buffer (25 mM Tris pH 7.4, 137 mM NaCl, 2.7 mM KCl, 1 mM CaCl2, 1 mM MgCl2, 1 mM MnCl2) was added to wells (50 μl/well) of a 96-well half-well transparent microtiter plate (Greiner 675061), and incubated overnight at 4° C. Wells were washed 3 times with 150 μL TBS+ and 150 μL of blocking buffer (TBS+ with 1% bovine serum albumin, Sigma A7906) were added. The plate was incubated for 1 hr at 37° C. and then washed 3× with TBS+. Recombinant human integrin αvβ8 (R&D Systems, 4135-AV) was diluted to 0.1 μg/mL in TBS+/0.1% bovine serum albumin. Compounds were diluted 1:100 into the integrin solution and 50 μL added to empty wells of the washed LAP-coated plate according to a standard template with each sample repeated in triplicate. After incubation for two hours at room temperature, the plate was washed 3× with 150 μL of TBS+. To each well, 50 μL of biotinylated anti-αv antibody (R&D Systems, BAF1219) at 1 μg/mL in TBS+/0.1% BSA were added and the plate was covered and incubated for 1 hr at room temperature. After washing the plate 3× with 150 μL of TBS+ buffer, 50 μL of streptavidin-conjugated horseradish peroxidase (R&D Systems, DY998) diluted in TBS+ blocking buffer were added to the wells and the plate incubated for 20 min at room temperature. The plate was washed 3× with TBS+ followed by 50 μL of TMB substrate (Sigma T4444) added to each well and the plate incubated for 20 min at room temperature. Plates were read by colorimetric detection at 650 nm wavelength using a Tecan Safire II plate reader. Concentration-response curves were constructed by non-linear regression (best fit) analysis, and IC50 values were calculated for each compound.

Recombinant human integrin αvβ1, sequence (P06756 31-992): as the sequence (P06756 31-992) above
Recombinant human integrin αvβ1, sequence (P05556 21-728): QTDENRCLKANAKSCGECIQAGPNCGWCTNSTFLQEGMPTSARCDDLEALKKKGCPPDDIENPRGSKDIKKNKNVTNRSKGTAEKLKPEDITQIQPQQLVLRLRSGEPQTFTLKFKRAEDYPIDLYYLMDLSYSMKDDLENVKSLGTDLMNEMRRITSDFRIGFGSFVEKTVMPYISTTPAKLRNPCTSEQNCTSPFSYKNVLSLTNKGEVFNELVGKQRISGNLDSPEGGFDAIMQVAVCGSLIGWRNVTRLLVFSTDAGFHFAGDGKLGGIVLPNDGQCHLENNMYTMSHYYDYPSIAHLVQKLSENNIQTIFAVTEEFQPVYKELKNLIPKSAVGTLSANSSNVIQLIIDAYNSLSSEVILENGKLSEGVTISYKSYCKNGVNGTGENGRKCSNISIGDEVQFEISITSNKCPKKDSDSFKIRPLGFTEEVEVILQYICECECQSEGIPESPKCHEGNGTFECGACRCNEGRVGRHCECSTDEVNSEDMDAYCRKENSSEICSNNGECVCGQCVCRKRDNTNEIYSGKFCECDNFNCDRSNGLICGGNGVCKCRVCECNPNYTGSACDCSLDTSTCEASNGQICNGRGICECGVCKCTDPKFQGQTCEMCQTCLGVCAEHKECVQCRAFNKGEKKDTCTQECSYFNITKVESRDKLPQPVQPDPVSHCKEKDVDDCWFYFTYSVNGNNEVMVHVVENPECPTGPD

O=C(O)C[C@H](NC(=O)CNC(=O)c1cc(O)cc(NC2=NCC(O)CN2)c1)c1cc(Br)cc(Br)c1 (stereo partly drawn) [Example 1, (3S)-3-(3,5-dibromophenyl)-3-(2-(3-hydroxy-5-((5-hydroxy-1,4,5,6-tetrahydropyrimidin-2-yl)amino)benzamido)acetamido)propanoic acid]
IC50 [1]: 2 ± 2 nM
IC50 [2]: 0.4 nM
IC50 [3]: 0.3 ± 0.1 nM

O=C(O)C[C@H](NC(=O)CNC(=O)c1cc(O)cc(NC2=NCC(O)CN2)c1)c1cc(Br)cc(C(F)(F)F)c1 (stereo partly drawn) [Example 2, (3S)-3-(3-bromo-5-(trifluoromethyl)phenyl)-3-(2-(3-hydroxy-5-((5-hydroxy-1,4,5,6-tetrahydropyrimidin-2-yl)amino)benzamido)acetamido)propanoic acid]
IC50 [1]: 2 nM
IC50 [2]: 0.3 nM
IC50 [3]: 0.5 nM

O=C(O)C[C@H](NC(=O)CNC(=O)c1cc(O)cc(NC2=NCC(O)CN2)c1)c1cc(Cl)cc(C(F)F)c1 (stereo partly drawn) [Example 3, (3S)-3-[3-chloro-5-(difluoromethyl)phenyl)-3-(2-(3-hydroxy-5-((5-hydroxy-1,4,5,6-tetrahydropyrimidin-2-yl)amino)benzamido)acetamido]propanoic acid]
IC50 [1]: 2 nM
IC50 [2]: 0.4 nM
IC50 [3]: 0.3 nM

O=C(O)C[C@H](NC(=O)CNC(=O)c1cc(O)cc(NC2=NCC(O)CN2)c1)c1cc(Br)cc(C(F)F)c1 (stereo partly drawn) [Example 4, (3S)-3-[3-bromo-5-(difluoromethyl)phenyl)-3-(2-(3-hydroxy-5-((5-hydroxy-1,4,5,6-tetrahydropyrimidin-2-yl)amino)benzamido)acetamido]propanoic acid]
IC50 [1]: 2 nM
IC50 [2]: 0.4 nM
IC50 [3]: 0.4 nM

O=C(O)C[C@H](NC(=O)CNC(=O)c1cc(O)cc(NC2=NCC(O)CN2)c1)c1cc(Cl)cc(C(F)(F)F)c1 (stereo partly drawn) [Example 5, (3S)-3-[3-chloro-5-(trifluoromethyl)phenyl)-3-(2-(3-hydroxy-5-((5-hydroxy-1,4,5,6-tetrahydropyrimidin-2-yl)amino)benzamido)acetamido]propanoic acid]
IC50 [1]: 2 nM
IC50 [2]: 0.5 nM
IC50 [3]: 0.6 nM

O=C(O)C[C@H](NC(=O)CNC(=O)c1cc(O)cc(NC2=NCC(O)CN2)c1)c1cc(Cl)cc(Br)c1 (stereo partly drawn) [Example 6, (3S)-3-[3-bromo-5-chloro-phenyl)-3-(2-(3-hydroxy-5-((5-hydroxy-1,4,5,6-tetrahydropyrimidin-2-yl)amino)benzamido)acetamido]propanoic acid]
IC50 [1]: 3 nM
IC50 [2]: 0.4 nM
IC50 [3]: 0.5 nM

O=C(O)C[C@H](NC(=O)CNC(=O)c1cncc(NC2=NCC(O)CN2)c1)c1cc(Cl)cc(C(F)(F)F)c1 (stereo partly drawn) [Example 7]
IC50 [1]: 1 nM
IC50 [2]: 0.3 nM
IC50 [3]: 0.4 nM

O=C(O)C[C@H](NC(=O)CNC(=O)c1cncc(NC2=NCC(O)CN2)c1)c1cc(Cl)cc(Br)c1 (stereo partly drawn) [Example 8, (3S)-3-(3-bromo-5-chloro-phenyl)-3-[[2-[[5-[(5-hydroxy-1,4,5,6-tetrahydropyrimidin-2-yl)amino]pyridine-3-carbonyl]amino]acetyl]amino]propanoic acid]
IC50 [1]: 1 nM
IC50 [2]: 0.4 nM
IC50 [3]: 0.4 nM

O=C(O)C[C@H](NC(=O)CNC(=O)c1cncc(NC2=NCC(O)CN2)c1)c1cc(Br)cc(C(F)(F)F)c1 (stereo partly drawn) [Example 9, (3S)-3-[3-bromo-5-(trifluoromethyl)phenyl]-3-[[2-[[5-[(5-hydroxy-1,4,5,6-tetrahydropyrimidin-2-yl)amino]pyridine-3-carbonyl]amino]acetyl]amino]propanoic acid]
IC50 [1]: 1 nM
IC50 [2]: 0.3 nM
IC50 [3]: 0.3 nM

O=C(O)C[C@H](NC(=O)CNC(=O)c1cc(O)cc(NC2=NCC(O)CN2)c1)c1cc(C(F)(F)F)cc(C(F)(F)F)c1 (stereo partly drawn) [Example 10, (3S)-3-[3,5-bis(trifluoromethyl)phenyl)-3-(2-(3-hydroxy-5-((5-hydroxy-1,4,5,6-tetrahydropyrimidin-2-yl)amino)benzamido)acetamido]propanoic acid]
IC50 [1]: 2 ± 1 nM
IC50 [2]: 0.3 ± 0.1 nM
IC50 [3]: 0.3 ± 0.1 nM

Cc1cc(Br)cc([C@H](CC(=O)O)NC(=O)CNC(=O)c2cc(O)cc(NC3=NCC(O)CN3)c2)c1 (stereo partly drawn) [Example 11, (3S)-3-[3-bromo-5-methyl-phenyl)-3-(2-(3-hydroxy-5-((5-hydroxy-1,4,5,6-tetrahydropyrimidin-2-yl)amino)benzamido)acetamido)propanoic acid]
IC50 [1]: 0.4 nM
IC50 [2]: 0.5 nM
IC50 [3]: 0.6 nM

Cc1cc(Cl)cc([C@H](CC(=O)O)NC(=O)CNC(=O)c2cc(O)cc(NC3=NCC(O)CN3)c2)c1 (stereo partly drawn) [Example 12, (3S)-3-[3-chloro-5-methyl-phenyl)-3-(2-(3-hydroxy-5-((5-hydroxy-1,4,5,6-tetrahydropyrimidin-2-yl)amino)benzamido)acetamido)propanoic acid]
IC50 [1]: 4 ± 2 nM
IC50 [2]: 0.6 nM
IC50 [3]: 0.7 ± 0.1 nM

O=C(O)C[C@H](NC(=O)CNC(=O)c1cc(O)cc(NC2=NCC(O)CN2)c1)c1cc(F)cc(Br)c1 (stereo partly drawn) [Example 13, (3S)-3-[3-bromo-5-fluoro-phenyl)-3-(2-(3-hydroxy-5-((5-hydroxy-1,4,5,6-tetrahydropyrimidin-2-yl)amino)benzamido)acetamido)propanoic acid]
IC50 [1]: 1 nM
IC50 [2]: 0.4 nM
IC50 [3]: 1 ± 0.3 nM

O=C(O)C[C@H](NC(=O)CNC(=O)c1cncc(NC2=NCC(O)CN2)c1)c1cc(Br)cc(Br)c1 (stereo partly drawn) [Example 14, (3S)-3-(3,5-dibromophenyl)-3-[[2-[[5-[(5-hydroxy-1,4,5,6-tetrahydropyrimidin-2-yl)amino]pyridine-3-carbonyl]amino]acetyl]amino]propanoic acid]
IC50 [1]: 0.7 nM
IC50 [2]: 0.2 nM
IC50 [3]: 0.2 nM

O=C(O)C[C@H](NC(=O)CNC(=O)c1cc(O)cc(NC2=NCC(O)CN2)c1)c1cc(Cl)cc(Cl)c1 (stereo partly drawn) [Example 15, (3S)-3-[3,5-dichloro-phenyl)-3-(2-(3-hydroxy-5-((5-hydroxy-1,4,5,6-tetrahydropyrimidin-2-yl)amino)benzamido)acetamido)propanoic acid]
IC50 [1]: 4 ± 1 nM
IC50 [2]: 0.6 nM
IC50 [3]: 1.1 ± 0.3 nM
